{"source": "ChEMBL document CHEMBL5727714", "about": "“Amino compounds for treatment of medical disorders” (2020)", "target": "Complement factor D (Homo sapiens, UniProt P00746)", "sequence (P00746 whole entry)": "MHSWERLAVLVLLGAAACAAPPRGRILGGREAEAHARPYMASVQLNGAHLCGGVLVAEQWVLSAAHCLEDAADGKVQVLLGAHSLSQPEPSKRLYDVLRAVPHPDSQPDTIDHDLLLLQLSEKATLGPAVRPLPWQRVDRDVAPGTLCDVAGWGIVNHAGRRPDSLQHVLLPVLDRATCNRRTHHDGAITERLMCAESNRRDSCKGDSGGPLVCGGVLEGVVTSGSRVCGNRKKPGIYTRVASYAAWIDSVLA", "assay": "Inhibition Assay: Human Factor D (purified from human serum, Complement Technology, Inc.) at 80 nM final concentration is incubated with test compound at various concentrations for 5 minutes at room temperature in 50 mM Tris, 1M NaCl, pH 7.5. A synthetic substrate Z-L-Lys-SBzl and DTNB (Ellman's reagent) are added to final concentrations of 100 Î¼M each. Absorbance at 405 nm (A405) is recorded at 30 second intervals for 30 minutes using a microplate spectrophotometer. IC50 values are calculated by nonlinear regression of complement Factor D reaction rates as a function of test compound concentration."}
{"smiles": "CC(=O)c1cn(CC(=O)N2C[C@H](F)C[C@H]2C(=O)Nc2cccc(Cl)c2C(F)(F)F)c2ccc(Nc3cncnc3)cc12", "values": [{"measurement": "IC50", "result": "< 1", "unit": "µM"}]}
